From article PMC3524758, “Development and evaluation of a novel radioiodinated vesamicol analog as a sigma receptor imaging agent” (EJNMMI Research, 2012)

Columns and labels:
sigma receptors = test: Blocking studies with excess sigma ligand in DU-145 tumor-bearing mice; assay type: in vivo; settings: 10 μmol/kg i.v. co-injection, 1-h post-injection
Procedure: At 1-h post-injection, the mice were killed, and biodistribution experiments were conducted as described above.

sigma-1 receptor = molecular target: T1, sigma-1 receptor (Rattus norvegicus, UniProt Q9R0C9); design: method as in PMID 15670917; settings: cited from earlier work
T1 construct: from tissue; host or cells: rat brain without cerebellum (male Sprague-Dawley rats)
T1 sequence (Q9R0C9 whole entry): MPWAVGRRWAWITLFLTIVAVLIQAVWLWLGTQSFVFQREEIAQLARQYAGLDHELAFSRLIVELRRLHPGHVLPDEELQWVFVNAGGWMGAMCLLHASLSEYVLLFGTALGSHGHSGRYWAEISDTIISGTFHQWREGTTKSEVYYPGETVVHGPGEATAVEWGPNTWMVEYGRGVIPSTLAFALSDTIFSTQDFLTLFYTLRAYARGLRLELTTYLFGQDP

[1] = tested on: DU-145 prostate cancer cell lines; test: Cellular uptake and washout experiments in vitro; assay type: cell-based; settings: DU-145 cells
Procedure: Radiotracer uptake studies were performed in monolayer cultures of DU-145 prostate cancer cell lines, which were obtained from ATCC (Manassas, VA, USA). Cells were grown in cell culture dishes in RPMI 1640 medium with phenol red, 10% heat-inactivated fetal bovine serum (FBS), 100-μg/mL glutamine, 100-units/mL penicillin, and 100-μg/mL streptomycin at 37°C in a humidified atmosphere of 95% air and 5% carbon dioxide. Cells were plated on 6-well tissue culture plates (4 × 10^5 cells/well) for 24 h before the study and incubated at 37°C in the culture medium without FBS containing (+)-^125I]IV-OH or (+)-^125I]pIV (3.7 kBq/well), which was prepared by a method of a previous study for different time intervals (15, 30, 60, and 120 min). For the washout experiment, tumor cells exposed to a medium containing (+)-^125I]IV-OH or (+)-^125I]pIV for 60 min were washed with phosphate buffered saline (PBS) and incubated in fresh (nonradioactive) medium without FBS at 37°C for 15, 30, and 60 min. […] After incubation, cells were washed twice with ice-cold PBS and resolved by adding 0.5 mL of 1-M NaOH. The solutions were then collected and the radioactivity was determined with an auto well gamma counter (ARC-380; Aloka) and corrected for background radiation. The radioactivity of each sample was normalized for the protein level, which was determined using a Protein Assay Bicinchoninate Kit (Nacalai Tesque).

[2] = design: method as in PMID 19659515; settings: cited from earlier work

| effect of co-injected ligand on brain to blood uptake ratio of (+)-[^125I]IV-OH (sigma receptors) | effect of co-injected ligand on pancreas to blood uptake ratio of (+)-[^125I]IV-OH (sigma receptors) | effect of co-injected ligand on tumor to blood uptake ratio of (+)-[^125I]IV-OH (sigma receptors) | SMILES | Ki (sigma-1 receptor) [nM] | time at which uptake was saturated [1] [min] | accumulation in the presence of haloperidol ([1]; haloperidol 10 μM in culture medium) | intracellular radioactivity released into the supernatant ([1]; within 60 min after medium replacement, specific uptake) [%] | log P [2] |
| --- | --- | --- | --- | --- | --- | --- | --- | --- |
| significant decrease | significant decrease | significant decrease | O[C@@H]1CCCCC1N1CCC(c2ccc(I)cc2)CC1 (single isomer, unassigned; (+)) [(+)-pIV, (+)-2-[4-(4-iodophenyl)piperidino]cyclohexanol] | 1.3 |  |  |  |  |
|  |  |  | O[C@H]1CCCC[C@@H]1N1CCC(c2ccc([125I])cc2)CC1 [(+)-[^125I]pIV, reference compound] |  | 30 | remarkably lessened | 44 | 2.08 |
